Test system: DLD-1 Flp-In T-REx and Lyn KO cells
Test: Level of Lyn / Lyn-GFP variants after NMT1/2 and DCAF10 siRNA, Western blot
Assay type: cell-based, human
Text: To further investigate the role of the Nt-amino acid and its modification in DCAF10 recognition and DCAF10-dependent ubiquitination, we used the CRISPR/Cas9 technique to knock out Lyn in DLD-1 cell lines with T-REx Flp-In background (DLD-1 Lyn KO Flp-In T-REx) (Supplementary Fig. 7a–c). We then integrated Lyn^WT-GFP and two Nt-mutants (Lyn^G2A-GFP and Lyn^G2P-GFP) under a doxycycline-inducible promoter into the Flp-In cassette. Alanine (G2A) is expected to be efficiently acetylated by NatA, generating an Nt-acetylated Lyn mutant. Conversely, the proline (G2P) mutant, is expected not to be acetylated and may retain a free N-terminus[3],[36],[37]. Doxycycline-induced expression of Lyn^WT-GFP, Lyn^G2A-GFP, and Lyn^G2P-GFP was confirmed by Western blot, MS, and fluorescence microscopy (Supplementary Figs. 7d, e; 8a and Supplementary Data 6). While all constructs were ~2–5-fold higher expressed than endogenous Lyn, G2A and G2P were further elevated relative to WT, which may reflect increased stability when Nt-Gly/acetylation is altered (Supplementary Fig. 7e). […] Lyn^WT-GFP mirrored the behavior of endogenous Lyn under NMT1/2 siRNA treatment. Lyn levels decreased with NMT1/2 KD, but were rescued when siRNAs targeting both NMT1/2 and DCAF10 were applied (Fig. 6a, b). […] The weaker reduction of Lyn^WT-GFP may result from Lyn overexpression and the limiting availability of DCAF10.
Fig. 6 N-terminal glycine mutation abolishes DCAF10-dependent stability and ubiquitination. a DLD-1 Flp-In T-REx cells and Lyn KO cells expressing Lyn^WT-GFP, Lyn^G2A-GFP, or Lyn^G2P-GFP were induced for 24 h with 100 ng/mL doxycycline. Cells were treated with NMT1/2 siRNA, DCAF10 siRNA, or both (or left untreated) for 72 h. Representative WBs are shown. Filled circles represent siRNA treatment, empty circles untreated. b WB quantifications of Lyn levels normalized to vinculin. Purple: untreated with NMT1/2 siRNA; blue: treated with NMT1/2 siRNA. Mean ± s.d. with individual data points are shown (n = 3 independent biological replicates). c Schematic of ubiquitination experiments. Created in BioRender. […] Lysates have been treated with NMT1/2 RNAi for 72 h. i Quantification of in vitro ubiquitination assays. Mean ± s.d. with individual data points are shown (n = 3 independent ubiquitination assays). Volcano plots of Lyn-GFP^WT binding partners: j NMT1/2 siRNA ± doxycycline (Dox); k Control ± doxycycline; l NMT1/2 siRNA vs. control both with doxycycline. The −log10 adjusted p-value (two-sided Student’s t test with permutation-based multiple-testing correction; y-axis) is plotted against the log2 fold change (x-axis). Threshold for significance: −log10 p-value ≥ 1.3 (p ≤ 0.05), log2 fold change ≤ −1 or ≥ 1. DCAF10 and Lyn-GFP are marked in green, significant binding partners in purple and in blue, respectively. Source data are provided as a Source data file.
DLD-1 Lyn knockout (KO) Flp-In T-REx cells were generated by CRISPR/Cas9 electroporation using two guide RNAs targeting the LYN locus. Editing and clone validation were confirmed by genomic sequencing, Western blotting, and MS[51]. Stable cell lines expressing doxycycline-inducible Lyn-GFP (WT, G2A, or G2P) were established by FRT/Flp-mediated recombination and validated by antibiotic selection, Western blotting, and fluorescence microscopy. Detailed protocols are provided in the Supplementary Methods and Tables.
461 electroporated using the CM137 program. Following electroporation, the cells were kept […]

For “Lyn^WT-GFP: doxycycline-inducible C-terminally GFP-fused Lyn in DLD-1 Lyn KO cells”, the “Level decrease following NMT1/2 KD” value (DLD-1, 72 h NMT1/2 siRNA, 24 h doxycycline 100 ng/mL, WB/vinculin, average, n = 3) was 21%, the “Dependency on NMT1/2 and DCAF10 (in words)” value (DLD-1, 72 h siRNA) was “remained dependent on NMT1/2 and DCAF10” and the “Level increase upon combined NMT1/2 and DCAF10 KD” value (DLD-1, 72 h siRNA, WB/vinculin, n = 3) was 41.7%.

— publication PMC12775124, “CUL4A-DDB1-DCAF10 is an N-recognin for N-terminally acetylated Src kinases” (Nature Communications, 2026)
